Reference: patent publication US12043625B2, “Pyridine derivatives with c-linked cyclic substituents as cGAS inhibitors” (BOEHRINGER INGELHEIM INTERNATIONAL GMBH, priority 2021, dated 2024)
pIC50: −log10 of the molar value.

Experiments:
[1] = molecular target: Human cGAS (Homo sapiens (Human), UniProt Q8N884); experiment: Human cGAS enzyme assay (hcGAS IC50, in vitro), cGAMP formation by RapidFire MS; assay type: biochemical; conditions: 45 bp dsDNA, GTP/ATP;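 note: compounds preincubated 60 min, then GTP and ATP (30 µM each) added for 90 min at room temperature, cGAMP read relative to cyclic-di-GMP internal standard, no-enzyme/DNA wells as 0%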
Sequence of Human cGAS (Q8N884 whole entry): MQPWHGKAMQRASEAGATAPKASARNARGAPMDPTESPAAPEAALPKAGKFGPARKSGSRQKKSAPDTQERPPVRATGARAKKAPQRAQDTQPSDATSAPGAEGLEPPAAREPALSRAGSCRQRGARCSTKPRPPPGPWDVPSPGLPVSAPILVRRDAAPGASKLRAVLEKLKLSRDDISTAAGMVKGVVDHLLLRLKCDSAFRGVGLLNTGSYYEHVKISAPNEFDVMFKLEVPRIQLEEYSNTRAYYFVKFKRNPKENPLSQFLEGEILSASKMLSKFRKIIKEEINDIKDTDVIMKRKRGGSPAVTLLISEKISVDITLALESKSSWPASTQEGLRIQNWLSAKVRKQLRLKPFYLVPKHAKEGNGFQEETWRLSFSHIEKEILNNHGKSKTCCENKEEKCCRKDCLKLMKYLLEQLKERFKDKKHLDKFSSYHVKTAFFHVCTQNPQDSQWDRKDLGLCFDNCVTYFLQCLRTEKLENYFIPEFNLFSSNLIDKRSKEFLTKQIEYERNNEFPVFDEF

[2] = tested on: IFN induction in virus-stimulated THP1 cells; experiment: Human cGAS cell assay, baculovirus-stimulated THP1-Dual cells, Lucia luciferase reporter (THP1(vir) IC50); assay type: cell-based; conditions: for pIC50: Homo sapiens, THP-1, baculovirus-stimulated THP1-Dual cells, 18 h; for Ratio THP(cGAMP) IC50/THP(vir) IC50: selectivity for cGAS inhibition;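 for all read-outs here: IRF-dependent luminescence, 8 concentrations up to 10 µM in 1% DMSO, 0% = unstimulated cells, 100% = DMSO plus virus, counter assay stimulated with cGAMP downstream of cGAS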
Source text: THP1-Dual™ cells (InvivoGen #thpd-nfis) expressing IRF dependent Lucia luciferase reporter were used as basis for both assays. For the detection of cellular cGAS activity cells were stimulated by a baculovirus (pFastbac-1, Invitrogen, no coding insert) infection that delivers the cGAS enzyme stimulating double-stranded DNA (measurement of THP1(vir) IC50).
(§1) For the counter assay, cells were stimulated by cGAMP (SigmaAldrich #SML1232) to activate the identical pathway independent and directly downstream of cGAS (measurement of THP1(cAMP) IC50). Pathway activity was monitored by measuring the Lucia luciferase activity induced by either DNA stimulated cGAS enzyme activity (measurement of THP1^(vir) IC50) or by cGAMP directly (measurement of THP1(cAMP) IC50, counter assay).
Typically, 8 concentrations were used with the highest concentration at 10 μM in the final assay volume followed by ˜1:5 dilution steps. DMSO concentration was set to 1% in the final assay volume. The 384 well assay plate contained 21 test compounds (column 1-22), and DMSO in column 23 and 24.
The baculovirus solution was then added 1:200 (may have varied according to virus batch) to the cells (measurement of THP1(vir) IC50).
(§2) 30 μL of the cell/virus-mix were added to each well of the compound plate from column 1-23 via MultiDrop Combi dispenser (5000 cells/well). In column 24, 30 μl/5000 cells/well without virus were added as a low control.
(§3) The plates were then incubated for 18 h at 37° C. in a humidified incubator.
(§4) Following that, 15 μL of QuantiLuc detection reagent (InvivoGen #rep-qlcg5) were added to each well using a MultiDrop Combi. Measurement was done immediately after the addition using an EnVision reader (US-luminescence read-mode).
Data Evaluation and Calculation:
(§5) For data evaluation and calculation, the measurement of the low control was set as 0% control and the measurement of the high control was set as 100% control. The IC50 values were calculated using the standard 4 parameter logistic regression formula. Calculation: [y=(a−d)/(1+(x/c)^b)+d], a=low value, d=high value; x=conc M; c=1C50 M; b=slope

[3] = tested on: IFN induction in cGAMP-stimulated THP1 cells; experiment: cGAMP stimulated counter cell assay, THP1-Dual cells, Lucia luciferase reporter (THP1(cGAMP) IC50); assay type: cell-based; conditions: Homo sapiens, THP-1, THP1-Dual cells stimulated with 10 μM cGAMP;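 note: IRF-driven Lucia luciferase luminescence after 18 h at 37° C, compound series topping at 10 µM with 1% DMSO, unstimulated wells as 0% and DMSO wells as 100%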
Source text: 6.2 Method: Human cGAS Cell Assay and cGAMP Stimulated Counter Cell Assay (THP1(vir) IC50 and THP1(cGAMP) IC50)
THP1-Dual™ cells (InvivoGen #thpd-nfis) expressing IRF dependent Lucia luciferase reporter were used as basis for both assays.
as §1
Compounds were delivered in 10 mM DMSO solution, serially diluted and transferred to the 384 well assay plate (Greiner #781201) using an Echo acoustic dispenser. Typically, 8 concentrations were used with the highest concentration at 10 μM in the final assay volume followed by ˜1:5 dilution steps. DMSO concentration was set to 1% in the final assay volume. The 384 well assay plate contained 21 test compounds (column 1-22), and DMSO in column 23 and 24.
as §2, §3, §4
Data Evaluation and Calculation:
as §5

[4] = tested on: IFN induction in dsDNA-stimulated human whole blood; experiment: Human whole blood assay, dsDNA transfection, IFNα2a production (hWB IC50); assay type: cell-based;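 note: cGAS pathway activity, IFNα2a in plasma by MSD immunoassay after 22 h at 37 °C, 8 concentrations up to 10 µM in 0.1% DMSO, DMSO controls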
Procedure: For the detection of cellular cGAS activity human whole blood was stimulated by transfection with double stranded DNA. Pathway activity was monitored by measuring the IFNα2α production.
Typically, 8 concentrations were used with the highest concentration at 10 μM in the final assay volume followed by ˜1:5 dilution steps. DMSO concentration was set to 0.1% in the final assay volume. The 96-well assay plate contained 10 test compounds, and DMSO in control wells.
Whole blood was kept at room temperature for a maximum of 3 hours after collection until use in the assay.
160 μl of the whole blood samples was transferred to each well of the 96-well assay plates filled with compound/OptiMEM. All assay plates were prepared as duplicates with blood from different donors. Blood plates were kept at room temperature for 60 minutes and continuous shaking with 450 rpm, covered with the lid, but not sealed.
20 μl OptiMEM and 9.6:1 Fugene was added to all low control wells.
After covering assay plates with aera seals and the lid, blood plates were kept at room temperature for 30 minutes and continuous shaking with 450 rpm, followed by an overnight incubation of 22 h at 37° C. in the incubator, without shaking.
U-Plex MSD GOLD 96-well Small Spot Strepavidin SECTOR Plates (Meso Scale Diagnostics #L45SA-5) were coated with 25 μl diluted capture antibody. Coated plates were incubated for 60 min at room temperature under continuous shaking at 700 rpm. MSD IFNα-2a plates were washed three times with 150 μl wash buffer (1×HBSS, 0.05% Tween).
After blocking the plates with 100 μl block solution/well (1×HBSS with 0.2% Tween, 2% BSA) for 60 min at room temperature and continuous shaking at 700 rpm, plates were emptied as dry as possible by dumping just before continuing with the human plasma.
Whole Blood assay plates were centrifuged at 1600 rpm for 10 minutes. 25 μl of supernatant was transferred with a pipetting robot from each whole blood plate to the corresponding IFNα-2a plate.
Plates were sealed with microplate seals and kept at room temperature again under continuous shaking at 700 rpm for two hours.
Next MSD IFNα-2a plates were washed three times with 150 μl wash buffer (1×HBSS, 0.05% Tween), before adding 25 μl MSD SULFO-TAG IFNα-2a Antibody solution (1:100 diluted in Diluent 3 (Meso Scale Diagnostics #R50AP-2) to each well of the plates.
Afterwards plates were sealed with microplate seals and kept at room temperature again under continuous shaking at 700 rpm for two hours. Finally, MSD IFNα-2α plates were washed three times with 150 μl wash buffer (1×HBSS, 0.05% Tween). 150 μl 2× Read buffer was added to each well and plates were immediately measured with the MSD Sector S600 Reader using the vendor barcode.
For data evaluation and calculation, % control calculation of each well was based on the mean of high (DNA stimulated control) and mean of low (unstimulated control) controls by using the following formula: [counts(sample)−counts(low))/(counts(high)−counts(low))]*100
The IC50 values were calculated using the standard 4 parameter logistic regression formula. Calculation: [y=(a−d)/(1+(x/c)^b)+d], a=low value, d=high value; x=conc M; c=1C50 M; b=slope

Question: What does the source list for `O=C(O)[C@@H]1C[C@H](Oc2ncc(Cl)cc2[C@@]2(F)CCS(=O)(=O)C3(COC3)C2)CN1c1nc(C(F)F)nc2c1oc1ccccc12` [Example 1.19]?
Answer: pIC50 [1]: 8.30; pIC50 [2]: 6.25; Ratio THP(cGAMP) IC50/THP(vir) IC50 [2]: 25; pIC50 [3]: 4.85; pIC50 [4]: 6.50

Question: Which results are given for `CC(=O)N1CC[C@](F)(c2cc(Cl)cnc2O[C@H]2C[C@@H](C(=O)O)N(c3nc(C(F)F)nc4c3oc3ccccc34)C2)[C@@H](C)C1` [Example 1.22]?
Answer: pIC50 [1]: 8.40; pIC50 [2]: 7.07; Ratio THP(cGAMP) IC50/THP(vir) IC50 [2]: 189; pIC50 [3]: 4.79; pIC50 [4]: 6.94

Question: With `CNc1cccc(-c2cnc(O[C@H]3C[C@@H](C(=O)O)N(c4nc(C(F)F)nc5c4oc4ccccc45)C3)c([C@@]3(F)CCOC[C@@H]3C)c2)c1` [Example 6.03] as the compound, how does the pIC50 [1] read?
Answer: 8.00

Question: And the pIC50 [2]?
Answer: 7.46

Question: What about the “Ratio THP(cGAMP) IC50/THP(vir) IC50” value [2] of the same compound?
Answer: 276

Question: And the pIC50 [3]?
Answer: 5.02

Question: And the pIC50 [4]?
Answer: 7.42

Question: With `C[C@H]1CN(C(N)=O)CC[C@]1(F)c1cc(Cl)cnc1O[C@H]1C[C@@H](C(=O)O)N(c2nc(C(F)F)nc3c2oc2ccccc23)C1` [Example 1.24] as the compound, how does the pIC50 [1] read?
Answer: 8.15

Question: And the pIC50 [2]?
Answer: 6.61

Question: And the “Ratio THP(cGAMP) IC50/THP(vir) IC50” value [2]?
Answer: 88

Question: And the pIC50 [3]?
Answer: 4.66

Question: What about the pIC50 [4] of the same compound?
Answer: 6.32

Question: `COC(=O)[C@@H]1C[C@H](Oc2ncc(Cl)cc2[C@@]2(OC)CC(C)(C)S(=O)(=O)C[C@@H]2C)CN1c1nc(C(F)F)nc2c1oc1ccccc12` [Example P03] was tested. Which pIC50 [1] did it give?
Answer: 5.14

Question: What about the pIC50 [2] of the same compound?
Answer: 6.69

Question: And the pIC50 [3]?
Answer: 4.69

Question: And the pIC50 [4]?
Answer: 5.70

Question: Which results are given for `C#Cc1cnc(O[C@H]2C[C@@H](C(=O)O)N(c3nc(C(F)F)nc4c3oc3ccccc34)C2)c([C@]2(F)CCS(=O)(=O)C(C)(C)C2)c1` [Example 1.15]?
Answer: pIC50 [1]: 8.22; pIC50 [2]: 7.96; Ratio THP(cGAMP) IC50/THP(vir) IC50 [2]: 963; pIC50 [3]: 4.99; pIC50 [4]: 7.66

Question: `COC(=O)[C@@H]1C[C@H](Oc2ncc(Cl)cc2[C@@]2(F)CCS(=O)(=O)C[C@@H]2C)CN1c1nc(C(F)F)nc2c1oc1ccccc12` [Example P02] was tested. Which pIC50 [1] did it give?
Answer: < 5.00

Question: And the pIC50 [2]?
Answer: 7.54

Question: What about the pIC50 [3] of the same compound?
Answer: < 4.78

Question: What about the pIC50 [4] of the same compound?
Answer: 6.85

Question: What does the source list for `C#Cc1cnc(O[C@H]2C[C@@H](C(=O)O)N(c3nc(C(F)(F)F)nc4c3oc3ccccc34)C2)c([C@]2(F)CCS(=O)(=O)C(C)(C)C2)c1` [Example 1.14]?
Answer: pIC50 [1]: 8.05; pIC50 [2]: 7.38; Ratio THP(cGAMP) IC50/THP(vir) IC50 [2]: 127; pIC50 [3]: 5.28; pIC50 [4]: 7.28

Question: Which results are given for `CC#Cc1cnc(O[C@H]2C[C@@H](C(=O)O)N(c3nc(C(F)(F)F)nc4c3oc3ccccc34)C2)c([C@@]2(F)CCN(C3COC3)C[C@@H]2C)c1` [Example 2.17]?
Answer: pIC50 [1]: 7.02; pIC50 [2]: 6.42; Ratio THP(cGAMP) IC50/THP(vir) IC50 [2]: 10; pIC50 [3]: 5.41; pIC50 [4]: 6.54

Question: With `O=C(O)[C@@H]1C[C@H](Oc2ncc(Cl)cc2[C@]2(F)CCOC[C@@H]2C(F)(F)F)CN1c1nc(C(F)F)nc2c1oc1ccccc12` [Example 1.25] as the compound, how does the pIC50 [1] read?
Answer: 8.00

Question: And the pIC50 [2]?
Answer: 6.15

Question: And the “Ratio THP(cGAMP) IC50/THP(vir) IC50” value [2]?
Answer: 19

Question: What about the pIC50 [3] of the same compound?
Answer: 4.87

Question: And the pIC50 [4]?
Answer: 6.30

Question: Which results are given for `C#Cc1cnc(O[C@H]2C[C@@H](C(=O)O)N(c3nc(C(F)F)nc4c3oc3ccccc34)C2)c([C@@]2(F)CCOC[C@@H]2C)c1` [Example 1.02]?
Answer: pIC50 [1]: 8.52; pIC50 [2]: 6.45; Ratio THP(cGAMP) IC50/THP(vir) IC50 [2]: 54; pIC50 [3]: 4.72; pIC50 [4]: 6.99

Question: How did the pIC50 [1] turn out when `C[C@H]1CN(C2COC2)CC[C@]1(F)c1cc(Cl)cnc1O[C@H]1C[C@@H](C(=O)O)N(c2nc(C(F)F)nc3c2oc2ccccc23)C1` [Example 1.23] was run?
Answer: 7.82

Question: And the pIC50 [2]?
Answer: 6.73

Question: And the “Ratio THP(cGAMP) IC50/THP(vir) IC50” value [2]?
Answer: 45

Question: What about the pIC50 [3] of the same compound?
Answer: 5.08

Question: What about the pIC50 [4] of the same compound?
Answer: 6.78

Question: How did the pIC50 [1] turn out when `CC1(C)C[C@](F)(c2cc(Cl)cnc2O[C@H]2C[C@@H](C(=O)O)N(c3nc(C(F)F)nc4c3oc3ccccc34)C2)CCS1(=O)=O` [Example 2.08] was run?
Answer: 8.30

Question: What about the pIC50 [2] of the same compound?
Answer: 7.60

Question: What about the “Ratio THP(cGAMP) IC50/THP(vir) IC50” value [2] of the same compound?
Answer: 479

Question: What about the pIC50 [3] of the same compound?
Answer: 4.92

Question: And the pIC50 [4]?
Answer: 7.55
